Experimental findings from patent US9962341B2, “Active pharmaceutical ingredient (API) comprising cannabinoids for use in the treatment of cancer” (GW Pharma Limited, priority 2014, dated 2018) are described below.

The test system of the first test is HepG2. In words: Cell viability (CellTiter-Blue, 72 h), HepG2 liver cancer cells. The test is classed as cell-based. The settings on record: Homo sapiens, HepG2, 72 h, read-out: IC50 values. The protocol:
The cell lines tested in this Example were as follows. Breast cancer: MDA-MB-231; SK-BR3; and BT474. Liver cancer: HepG2.
(§1) The phytocannabinoids were tested alone and in various ratioed combinations in media containing final concentrations of 10% and 1% foetal bovine serum at 72 h for the breast and prostate cancer lines and 1% foetal bovine serum for the liver cancer line HepG2.
Each tumour cell line was maintained in vitro in RPMI 1640+10% heat inactivated FBS and 2 mM L-glutamine (growth media) at 37° C. in 5% CO2 and humidified conditions. The cells were harvested, washed, re-suspended into growth medium and counted. The cells were re-suspended into assay media (RPMI 1640+5% heat inactivated FBS+ and 2 mM L-glutamine) at 8×104-2×10^5 cells/ml (dependent upon cell type) and plated into the middle 240 wells of 384 well tissue culture plates (Corning CellBind, black-wall plates) 12.5 μl/well aliquots; 62.5 μl of growth media was aliquoted into the outer wells. There were 4 plates for each cell line. The plates were incubated overnight at 37° C., in 5% humidified CO2.
The phytocannabinoid test compounds were prepared in 100% DMSO vehicle at a stock concentration of 10 mM.
Starting with the 10 mM stock, the compounds were diluted to 125 μM in FBS-free growth media.
These were diluted in FBS-free growth media to 125 μM before serial dilution.
5 volumes of CBD 10 mM stock was added to 1 volume of the other agent (also at 10 mM) and 4 volumes of DMSO. This made a final concentration of 5 mM:1 mM. This was then diluted in FBS-free growth media so the top concentration of CBD would be 125 μM (before serial dilution). Each compound and compound combination stock was serially diluted in FBS-free growth media (containing 1.25% v/v DMSO) from 125 μM to 41.7, 13.89, 4.63, 1.54, 0.514, 0.171, 0.057 and 0.019 μM (1.25× final assay concentrations). Vehicle was prepared at equivalent dilutions in assay media. The top final concentration of compound in the assay was always 100 μM so CBD5:1CBG was 100 μM CBD and 20 μM CBG.
The plates were incubated for 72 h at 37° C. in 5% humidified CO2. To develop the plates, at 72 h, 10 μl of CellTiter-Blue™ reagent was added to each test/blank well. The plates were incubated at 37° C., 5% humidified CO2. Fluorescence was measured using a Flex II Station plate reader (570 nm excitation wavelength, 600 nm emission wavelength, 590 nm cut-off) after 3 h.
The raw data values expressed in relative fluorescent units were normalised to the vehicle for each individual plate and any reduction in fluorescence indicated a decrease in viability.
The data were analysed in GraphPad PRISM using a non-linear sigmoidal plot with variable slope (asymmetric five point linear regression) and where possible an IC50 value for each single compound and combination was generated.
Background: Resazurin is reduced to fluorescent resorufin, in cell work by metabolically active cells.
The term IC50 denotes the concentration that gives 50% inhibition. For `C=C(C)[C@@H]1CCC(C)=C[C@H]1c1c(O)cc(CCCCC)cc1O` [CBD, Cannabidiol], the half-maximal inhibitory concentration (IC50) is 3.3 µM.
For `C=C(C)[C@@H]1CCC(C)=C[C@H]1c1c(O)cc(CCCCC)c(C(=O)O)c1O` [CBDA, Cannabidiolic acid], the IC50 amounted to 7.4 µM.
The same measure, in the same setting: in the case of `CCCCCc1cc(O)c(C/C=C(\C)CCC=C(C)C)c(O)c1` [CBG, Cannabigerol] it was 3.7 µM; in that of `CCCCCc1cc(O)c(C/C=C(\C)CCC=C(C)C)c(O)c1C(=O)O` [CBGA, Cannabigerolic acid], 9.3 µM; in that of `CCCc1cc(O)c2c(c1)OC(C)(C)[C@@H]1CCC(C)=C[C@@H]21` [THCV, Tetrahydrocannabivarin], 7.2 µM.

In a further test the test system is LNCAP cells compared to DU145 cells. The test can be described thus: Cell viability, prostate cancer lines LNCAP and DU145 (potency comparison). The settings on record: media containing 10% FBS. The test is classed as cell-based. As for the experimental part:
as §1
With `CCCc1cc(O)c2c(c1)OC(C)(C)[C@@H]1CCC(C)=C[C@@H]21` [THCV, Tetrahydrocannabivarin], the “fold more potent in LNCAP cells compared to DU145 cells” value is 5 fold.
